Literature values, collected in patent publication US20120093882A1 (priority 2009, published 2012).

Assays:
[1] = after oral administration
[2] = dissolved in ultra-pure water, natural midsummer sunlight, maximum of 145 h

Which results are given for `O=C(O)Cc1ccccc1Nc1c(Cl)cccc1Cl` [Diclofenac]?
absorption [1]: almost completely absorbed; hepatic first-pass metabolism [1]: 50%; degradation on exposure to sunlight [2]: Fast degradation
